From ChEMBL document CHEMBL2417375 (Bioorg Med Chem Lett, 2013)

Experiments:
Mu-type opioid receptor [1] = target: T1, Mu-type opioid receptor (Mus musculus, UniProt P42866); assay: Displacement of [3H]-naloxone from mouse mu opioid receptor expressed in CHO cells after 1.5 hrs; type: cell-based
[2] = target: Kappa-type opioid receptor (Mus musculus, UniProt P33534); assay: Displacement of [3H]-diprenorphine from mouse kappa opioid receptor expressed in CHO cells after 1.5 hrs; type: cell-based
Mus musculus [3] = species: Mus musculus; assay: Selectivity ratio of Ki for mouse delta opioid receptor to Ki for mouse mu opioid receptor
Mu-type opioid receptor [4] = target: T1, Mu-type opioid receptor; assay: Agonist activity at mouse mu opioid receptor expressed in CHO cells assessed as stimulation of [35S]-GTPgammaS binding after 1.5 hrs; type: functional, cell-based
[5] = target: Mu-type opioid receptor (Mus musculus) (UniProt P42866); assay: Agonist activity at mouse mu opioid receptor expressed in CHO cells assessed as stimulation of [35S]-GTPgammaS binding after 1.5 hrs relative to DAMGO; type: functional, cell-based
[6] = target: Delta-type opioid receptor (Mus musculus, UniProt P32300); assay: Displacement of [3H]-naltrindole from mouse delta opioid receptor expressed in CHO cells after 1.5 hrs; type: cell-based
Mus musculus [7] = species: Mus musculus; assay: Selectivity ratio of Ki for mouse kappa opioid receptor to Ki for mouse mu opioid receptor

Kappa-type opioid receptor, sequence (P33534 whole entry): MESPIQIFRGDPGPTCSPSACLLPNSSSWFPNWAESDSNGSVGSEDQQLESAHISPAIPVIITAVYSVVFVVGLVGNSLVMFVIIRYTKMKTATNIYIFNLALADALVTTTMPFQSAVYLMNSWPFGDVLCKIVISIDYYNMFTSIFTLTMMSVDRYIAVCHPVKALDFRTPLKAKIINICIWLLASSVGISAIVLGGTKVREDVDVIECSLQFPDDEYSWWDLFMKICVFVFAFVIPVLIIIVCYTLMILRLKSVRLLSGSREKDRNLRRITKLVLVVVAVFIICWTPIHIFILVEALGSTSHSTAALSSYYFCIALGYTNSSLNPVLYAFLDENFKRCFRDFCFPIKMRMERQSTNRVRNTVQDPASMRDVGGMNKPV
T1 sequence (P42866 whole entry): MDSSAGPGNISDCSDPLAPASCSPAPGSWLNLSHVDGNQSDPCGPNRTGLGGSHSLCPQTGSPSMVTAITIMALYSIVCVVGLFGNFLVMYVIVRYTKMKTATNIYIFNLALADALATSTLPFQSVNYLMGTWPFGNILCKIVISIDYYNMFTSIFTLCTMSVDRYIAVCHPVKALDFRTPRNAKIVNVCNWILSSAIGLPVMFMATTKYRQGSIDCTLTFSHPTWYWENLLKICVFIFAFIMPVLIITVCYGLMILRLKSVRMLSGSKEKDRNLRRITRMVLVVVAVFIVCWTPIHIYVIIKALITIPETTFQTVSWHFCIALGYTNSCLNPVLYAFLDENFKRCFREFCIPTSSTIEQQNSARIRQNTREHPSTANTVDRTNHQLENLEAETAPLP
Mu-type opioid receptor (Mus musculus), sequence (P42866 whole entry): as above
Delta-type opioid receptor, sequence (P32300 whole entry): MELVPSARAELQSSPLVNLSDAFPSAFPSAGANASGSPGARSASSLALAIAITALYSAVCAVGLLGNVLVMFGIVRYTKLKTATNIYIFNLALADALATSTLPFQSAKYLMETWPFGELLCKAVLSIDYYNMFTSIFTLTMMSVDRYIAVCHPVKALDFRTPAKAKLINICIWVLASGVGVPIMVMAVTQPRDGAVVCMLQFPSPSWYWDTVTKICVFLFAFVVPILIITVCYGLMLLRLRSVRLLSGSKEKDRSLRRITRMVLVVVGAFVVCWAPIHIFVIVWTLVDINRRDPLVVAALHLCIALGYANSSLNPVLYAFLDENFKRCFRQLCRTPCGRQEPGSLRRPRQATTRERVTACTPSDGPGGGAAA

Row | SMILES | Ki (Mu-type opioid receptor [1]) [nM] | Ki [2] [nM] | Ratio Ki (Mus musculus [3]) | EC50 (Mu-type opioid receptor [4]) [nM] | Emax [5] [%] | Ki [6] [nM] | Ratio Ki (Mus musculus [7])
1 | O=C(N[C@H]1CC[C@@]2(O)[C@H]3Cc4ccc(O)c5c4[C@@]2(CCN3CC2CC2)[C@H]1O5)c1ncc2ccccc2n1 | 1.11 | 5.1 | 71 | 6 | 21.6 | 78.8 | 4.6
2 | COc1c(C(=O)N[C@H]2CC[C@@]3(O)[C@H]4Cc5ccc(O)c6c5[C@@]3(CCN4CC3CC3)[C@H]2O6)nc(Cl)c2ccccc12 | – | 22.2 | – | 1.74 | – | 33.9 | –
3 | O=C(N[C@H]1CC[C@@]2(O)[C@H]3Cc4ccc(O)c5c4[C@@]2(CCN3CC2CC2)[C@H]1O5)c1cc2ccccc2cn1 | – | – | – | – | – | 162 | –
4 | O=C(CCc1cc2ccccc2cn1)N[C@H]1CC[C@@]2(O)[C@H]3Cc4ccc(O)c5c4[C@@]2(CCN3CC2CC2)[C@H]1O5 | 0.68 | 1.61 | 12 | 1.14 | 27.4 | 8.4 | 2.4
5 | O=C(N[C@H]1CC[C@@]2(O)[C@H]3Cc4ccc(O)c5c4[C@@]2(CCN3CC2CC2)[C@H]1O5)c1cc2ccccc2c(Cl)n1 | – | 10.8 | – | – | – | 79.8 | –
6 | O=C(N[C@H]1CC[C@@]2(O)[C@H]3Cc4ccc(O)c5c4[C@@]2(CCN3CC2CC2)[C@H]1O5)c1nc(Cl)c2ccccc2c1O | 0.73 | 18.3 | 24 | 1.23 | 19.8 | 17.4 | 25
7 | O=C(Cc1cc2ccccc2cn1)N[C@H]1CC[C@@]2(O)[C@H]3Cc4ccc(O)c5c4[C@@]2(CCN3CC2CC2)[C@H]1O5 | 1.2 | 1.1 | 10 | 4.6 | 18.6 | 12.5 | 0.9
8 | CN1Cc2ccccc2C[C@H]1C(=O)N[C@H]1CC[C@@]2(O)[C@H]3Cc4ccc(O)c5c4[C@@]2(CCN3CC2CC2)[C@H]1O5 | 2.9 | 6.76 | 3.2 | 19.4 | 24.8 | 9.3 | 2.3
9 | O=C(N[C@H]1CC[C@@]2(O)[C@H]3Cc4ccc(O)c5c4[C@@]2(CCN3CC2CC2)[C@H]1O5)c1ncc2ccccc2c1O | 0.45 | 4 | – | 1.06 | 20.5 | 32.8 | –
10 | O=C(CNC(=O)c1cc2ccccc2cn1)N[C@H]1CC[C@@]2(O)[C@H]3Cc4ccc(O)c5c4[C@@]2(CCN3CC2CC2)[C@H]1O5 | 2.7 | 0.61 | 3.4 | 14.1 | 13.9 | 9.2 | 0.2
11 | N#Cc1nc(C(=O)N[C@H]2CC[C@@]3(O)[C@H]4Cc5ccc(O)c6c5[C@@]3(CCN4CC3CC3)[C@H]2O6)cc2ccccc12 | 0.99 | 10.1 | 131 | 3.32 | 37.5 | 130 | 10
12 | Cc1nc(C(=O)N[C@H]2CC[C@@]3(O)[C@H]4Cc5ccc(O)c6c5[C@@]3(CCN4CC3CC3)[C@H]2O6)cc2ccccc12 | 2.1 | 29.1 | – | 7.2 | 22.2 | 117 | –
